Source: patent publication US9580444B2, “Polycyclic pyrazolinone derivative and herbicide comprising same as effective component thereof” (priority 2013, dated 2017)

How the values were obtained:
Type in all cases: in vivo
[1] = tested on: other annual broad leaf weeds (Lindernia procumbens, Rotala indica, Elatine triandra); experiment: Test Example-1: herbicidal effect by a treatment before weeds are generated under submerged conditions; details: 500 g a.i/ha, pre-emergence treatment, about 15 days after treatment, score 0-5
Method in brief: (§1)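 Scores (0–5, six stages) reflect visual weed control about 15 days after a same-day water application of the diluted formulated compound to freshly seeded, flooded paddy soil.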

[2] = tested on: Scirpus juncoides (bulrush); experiment: as above; details: 500 g a.i/ha, pre-emergence treatment, about 15 days after treatment, score 0-5
Method in brief: as §1

[3] = tested on: Echinochloa oryzicola (barnyard grass); experiment: as above; details: 500 g a.i/ha, pre-emergence treatment, about 15 days after treatment, score 0-5
Method in brief: as §1

[4] = tested on: Cyperus difformis (smallflower umbrella plant); experiment: as above; details: 500 g a.i/ha, pre-emergence treatment, about 15 days after treatment, score 0-5
Method in brief: as §1

[5] = tested on: Eleocharis acicularis (needle spikerush); experiment: as above; details: 500 g a.i/ha, pre-emergence treatment, about 15 days after treatment, score 0-5
Method in brief: as §1

[6] = tested on: Monochoria vaginalis (monochoria); experiment: as above; details: 500 g a.i/ha, pre-emergence treatment, about 15 days after treatment, score 0-5
Method in brief: as §1

corn [7] = experiment: Test Example-2: phytotoxicity by a soil treatment before weeds are generated under upland field conditions; details: application amount 500 g a.i/ha, soil spray treatment before weeds are generated, about 21 days after the treatment, score 0 to 5
Method in brief: (§2)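 Pre-emergence soil treatment: seeds sown in upland soil and covered with about 0.5 cm soil were sprayed the next day with diluted wettable powder or emulsifiable concentrate at a predetermined dosage. Weed control and corn injury were scored on a 0–5 scale about 21 days after treatment.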

[8] = tested on: Chenopodium album (common lambsquarters); experiment: Test Example-2: herbicidal effect by a soil treatment before weeds are generated under upland field conditions; details: application amount 500 g a.i/ha, soil spray treatment before weeds are generated, about 21 days after the treatment, score 0 to 5
Method in brief: as §2

[9] = tested on: Amaranthus viridis (green amaranthus); experiment: as above; details: application amount 500 g a.i/ha, soil spray treatment before weeds are generated, about 21 days after the treatment, score 0 to 5
Method in brief: as §2

corn [10] = experiment: Test Example-3: phytotoxicity by a treatment before weeds are generated under upland field conditions; details: upland soil treatment before emergence, about 21 days after treatment, score 0-5
Source text: (§3) Using the formulation prepared according to the methods described above, the herbicidal effect of the bicyclic pyrazolinone derivative of the invention according to the methods shown in Test Examples below was examined. The herbicidal effect with respect to the test weeds or the phytotoxicity with respect to the test crops was examined according to the following criteria, and evaluated in six stage scores of 0 to 5. A vat having an area of 81 cm^2 and a depth of 3.5 cm was filled with upland soil, then, seeds of Ipomoea purpurea (tall morning glory), Amaranthus viridis (green amaranthus), Abutilon theophrasti (velvetleaf), Chenopodium album (common lambsquarters), and corn were seeded thereto, and the seeds were covered with soil of about 0.5 cm. Next day, a wettable powder or an emulsifiable concentrate of the compound of the present invention prepared according to Formulation Example was diluted, and a spray treatment was uniformly performed on the covered oil so as to be a predetermined dosage. The herbicidal effect with respect to the test weeds and the phytotoxicity with respect to corn about 21 days after the treatment were evaluated according to the evaluation criteria in six stages of 0 to 5 described above.

[11] = tested on: Chenopodium album (common lambsquarters); experiment: Test Example-5: herbicidal effect by a foliage treatment after weeds are generated under upland field conditions; details: foliage treatment after emergence, about 14 days after treatment, score 0-5
Source text: as §3, with “While watering was suitably performed on there, the seeds were grown for 14 days. A” for “Next day, a”, “foliage portion of the plant” for “covered oil”, “dosage in the amount of water of 4000 L per hectare.” for “dosage.”, “14” for “21”

[12] = tested on: Ipomoea purpurea (tall morning glory); experiment: as above; details: foliage treatment after emergence, about 14 days after treatment, score 0-5
Source text: as §3, with “While watering was suitably performed on there, the seeds were grown for 14 days. A” for “Next day, a”, “foliage portion of the plant” for “covered oil”, “dosage in the amount of water of 4000 L per hectare.” for “dosage.”, “14” for “21”

[13] = tested on: Amaranthus viridis (green amaranthus); experiment: as above; details: foliage treatment after emergence, about 14 days after treatment, score 0-5
Source text: as §3, with “While watering was suitably performed on there, the seeds were grown for 14 days. A” for “Next day, a”, “foliage portion of the plant” for “covered oil”, “dosage in the amount of water of 4000 L per hectare.” for “dosage.”, “14” for “21”

[14] = tested on: Abutilon theophrasti (velvetleaf); experiment: as above; details: foliage treatment after emergence, about 14 days after treatment, score 0-5
Source text: as §3, with “While watering was suitably performed on there, the seeds were grown for 14 days. A” for “Next day, a”, “foliage portion of the plant” for “covered oil”, “dosage in the amount of water of 4000 L per hectare.” for “dosage.”, “14” for “21”

[15] = tested on: Chenopodium album (common lambsquarters); experiment: Test Example-3: herbicidal effect by a treatment before weeds are generated under upland field conditions; details: upland soil treatment before emergence, about 21 days after treatment, score 0-5
Source text: as §3

[16] = tested on: Ipomoea purpurea (tall morning glory); experiment: as above; details: upland soil treatment before emergence, about 21 days after treatment, score 0-5
Source text: as §3

[17] = tested on: Amaranthus viridis (green amaranthus); experiment: as above; details: upland soil treatment before emergence, about 21 days after treatment, score 0-5
Source text: as §3

[18] = tested on: Abutilon theophrasti (velvetleaf); experiment: as above; details: upland soil treatment before emergence, about 21 days after treatment, score 0-5
Source text: as §3

corn [19] = experiment: Test Example-5: phytotoxicity by a foliage treatment after weeds are generated under upland field conditions; details: foliage treatment after emergence, about 14 days after treatment, score 0-5
Source text: as §3, with “While watering was suitably performed on there, the seeds were grown for 14 days. A” for “Next day, a”, “foliage portion of the plant” for “covered oil”, “dosage in the amount of water of 4000 L per hectare.” for “dosage.”, “14” for “21”

corn [20] = experiment: Test Example-4: phytotoxicity by a foliage treatment after weeds are generated under upland field conditions; details: 500 g a.i/ha, foliage treatment after emergence, about 14 days after treatment, score 0-5
Method in brief: (§4)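 Post-emergence foliar treatment: seedlings raised 14 days in watered upland soil are sprayed with the diluted formulation at a predetermined dose, using a spray volume of 4000 L/ha. Effects on weeds and on corn are rated 0–5 roughly two weeks afterwards.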

[21] = tested on: Chenopodium album (common lambsquarters); experiment: Test Example-4: herbicidal effect by a foliage treatment after weeds are generated under upland field conditions; details: 500 g a.i/ha, foliage treatment after emergence, about 14 days after treatment, score 0-5
Method in brief: as §4

[22] = tested on: Amaranthus viridis (green amaranthus); experiment: as above; details: 500 g a.i/ha, foliage treatment after emergence, about 14 days after treatment, score 0-5
Method in brief: as §4

[23] = tested on: Abutilon theophrasti (velvetleaf); experiment: as above; details: 500 g a.i/ha, foliage treatment after emergence, about 14 days after treatment, score 0-5
Method in brief: as §4

Compound: C#CCOc1cc(-c2c(Cl)n3n(c2=O)CCOCC3)c(Cl)cc1Cl [Example 1-306]
- Herbicidal effect Broadleaf weed [1]: 5 (Herbicidal effect/phytotoxicity was 90% or greater)
- Herbicidal effect Scirpus juncoides [2]: 5 (Herbicidal effect/phytotoxicity was 90% or greater)
- Herbicidal effect Echinochloa oryzicola [3]: 5 (Herbicidal effect/phytotoxicity was 90% or greater)
- Herbicidal effect Cyperus difformis [4]: 5 (Herbicidal effect/phytotoxicity was 90% or greater)
- Herbicidal effect Eleocharis acicularis [5]: 5 (Herbicidal effect/phytotoxicity was 90% or greater)
- Herbicidal effect Monochoria vaginalis [6]: 5 (Herbicidal effect/phytotoxicity was 90% or greater)
- Phytotoxicity Corn (corn [7]): 1 (Herbicidal effect/phytotoxicity was 10% to 30%)
- Herbicidal effect Chenopodium album [8]: 5 (Herbicidal effect/phytotoxicity was 90% or greater)
- Herbicidal effect Amaranthus viridis [9]: 5 (Herbicidal effect/phytotoxicity was 90% or greater)
- Phytotoxicity Corn (corn [10]; 50 g a.i/ha): 0 (Herbicidal effect/phytotoxicity was 0% to 10%)
- Phytotoxicity Corn (corn [10]; 100 g a.i/ha): 1 (Herbicidal effect/phytotoxicity was 10% to 30%)
- Herbicidal effect Chenopodium album ([11]; 12.5 g a.i/ha): 5 (Herbicidal effect/phytotoxicity was 90% or greater)
- Herbicidal effect Chenopodium album ([11]; 25 g a.i/ha): 5 (Herbicidal effect/phytotoxicity was 90% or greater)
- Herbicidal effect Ipomoea purpurea ([12]; 12.5 g a.i/ha): 5 (Herbicidal effect/phytotoxicity was 90% or greater)
- Herbicidal effect Ipomoea purpurea ([12]; 25 g a.i/ha): 5 (Herbicidal effect/phytotoxicity was 90% or greater)
- Herbicidal effect Amaranthus viridis ([13]; 12.5 g a.i/ha): 5 (Herbicidal effect/phytotoxicity was 90% or greater)
- Herbicidal effect Amaranthus viridis ([13]; 25 g a.i/ha): 5 (Herbicidal effect/phytotoxicity was 90% or greater)
- Herbicidal effect Abutilon theophrasti ([14]; 12.5 g a.i/ha): 5 (Herbicidal effect/phytotoxicity was 90% or greater)
- Herbicidal effect Abutilon theophrasti ([14]; 25 g a.i/ha): 5 (Herbicidal effect/phytotoxicity was 90% or greater)
- Herbicidal effect Chenopodium album ([15]; 50 g a.i/ha): 5 (Herbicidal effect/phytotoxicity was 90% or greater)
- Herbicidal effect Chenopodium album ([15]; 100 g a.i/ha): 5 (Herbicidal effect/phytotoxicity was 90% or greater)
- Herbicidal effect Ipomoea purpurea ([16]; 50 g a.i/ha): 4 (Herbicidal effect/phytotoxicity was 70% to 90%)
- Herbicidal effect Ipomoea purpurea ([16]; 100 g a.i/ha): 5 (Herbicidal effect/phytotoxicity was 90% or greater)
- Herbicidal effect Amaranthus viridis ([17]; 50 g a.i/ha): 5 (Herbicidal effect/phytotoxicity was 90% or greater)
- Herbicidal effect Amaranthus viridis ([17]; 100 g a.i/ha): 5 (Herbicidal effect/phytotoxicity was 90% or greater)
- Herbicidal effect Abutilon theophrast ([18]; 50 g a.i/ha): 3 (Herbicidal effect/phytotoxicity was 50% to 70%)
- Herbicidal effect Abutilon theophrast ([18]; 100 g a.i/ha): 4 (Herbicidal effect/phytotoxicity was 70% to 90%)
- Phytotoxicity Corn (corn [19]; 12.5 g a.i/ha): 0 (Herbicidal effect/phytotoxicity was 0% to 10%)
- Phytotoxicity Corn (corn [19]; 25 g a.i/ha): 0 (Herbicidal effect/phytotoxicity was 0% to 10%)
- Phytotoxicity Corn (corn [20]): 1 (Herbicidal effect/phytotoxicity was 10% to 30%)
- Herbicidal effect Chenopodium album [21]: 5 (Herbicidal effect/phytotoxicity was 90% or greater)
- Herbicidal effect Amaranthus viridis [22]: 5 (Herbicidal effect/phytotoxicity was 90% or greater)
- Herbicidal effect Abutilon theophrast [23]: 5 (Herbicidal effect/phytotoxicity was 90% or greater)

Compound: C#CCOc1cc(-c2c(Cl)n3n(c2=O)CCCC3)c(F)cc1Cl [Example 1-238]
- Herbicidal effect Broadleaf weed [1]: 5 (Herbicidal effect/phytotoxicity was 90% or greater)
- Herbicidal effect Scirpus juncoides [2]: 5 (Herbicidal effect/phytotoxicity was 90% or greater)
- Herbicidal effect Echinochloa oryzicola [3]: 5 (Herbicidal effect/phytotoxicity was 90% or greater)
- Herbicidal effect Cyperus difformis [4]: 5 (Herbicidal effect/phytotoxicity was 90% or greater)
- Herbicidal effect Eleocharis acicularis [5]: 5 (Herbicidal effect/phytotoxicity was 90% or greater)
- Herbicidal effect Monochoria vaginalis [6]: 5 (Herbicidal effect/phytotoxicity was 90% or greater)
- Phytotoxicity Corn (corn [7]): 1 (Herbicidal effect/phytotoxicity was 10% to 30%)
- Herbicidal effect Chenopodium album [8]: 5 (Herbicidal effect/phytotoxicity was 90% or greater)
- Herbicidal effect Amaranthus viridis [9]: 5 (Herbicidal effect/phytotoxicity was 90% or greater)
- Phytotoxicity Corn (corn [10]; 50 g a.i/ha): 0 (Herbicidal effect/phytotoxicity was 0% to 10%)
- Phytotoxicity Corn (corn [10]; 100 g a.i/ha): 0 (Herbicidal effect/phytotoxicity was 0% to 10%)
- Herbicidal effect Chenopodium album ([11]; 12.5 g a.i/ha): 5 (Herbicidal effect/phytotoxicity was 90% or greater)
- Herbicidal effect Chenopodium album ([11]; 25 g a.i/ha): 5 (Herbicidal effect/phytotoxicity was 90% or greater)
- Herbicidal effect Ipomoea purpurea ([12]; 12.5 g a.i/ha): 5 (Herbicidal effect/phytotoxicity was 90% or greater)
- Herbicidal effect Ipomoea purpurea ([12]; 25 g a.i/ha): 5 (Herbicidal effect/phytotoxicity was 90% or greater)
- Herbicidal effect Amaranthus viridis ([13]; 12.5 g a.i/ha): 5 (Herbicidal effect/phytotoxicity was 90% or greater)
- Herbicidal effect Amaranthus viridis ([13]; 25 g a.i/ha): 5 (Herbicidal effect/phytotoxicity was 90% or greater)
- Herbicidal effect Abutilon theophrasti ([14]; 12.5 g a.i/ha): 5 (Herbicidal effect/phytotoxicity was 90% or greater)
- Herbicidal effect Abutilon theophrasti ([14]; 25 g a.i/ha): 5 (Herbicidal effect/phytotoxicity was 90% or greater)
- Herbicidal effect Chenopodium album ([15]; 50 g a.i/ha): 5 (Herbicidal effect/phytotoxicity was 90% or greater)
- Herbicidal effect Chenopodium album ([15]; 100 g a.i/ha): 5 (Herbicidal effect/phytotoxicity was 90% or greater)
- Herbicidal effect Ipomoea purpurea ([16]; 50 g a.i/ha): 5 (Herbicidal effect/phytotoxicity was 90% or greater)
- Herbicidal effect Ipomoea purpurea ([16]; 100 g a.i/ha): 5 (Herbicidal effect/phytotoxicity was 90% or greater)
- Herbicidal effect Amaranthus viridis ([17]; 50 g a.i/ha): 4 (Herbicidal effect/phytotoxicity was 70% to 90%)
- Herbicidal effect Amaranthus viridis ([17]; 100 g a.i/ha): 5 (Herbicidal effect/phytotoxicity was 90% or greater)
- Herbicidal effect Abutilon theophrast ([18]; 50 g a.i/ha): 5 (Herbicidal effect/phytotoxicity was 90% or greater)
- Herbicidal effect Abutilon theophrast ([18]; 100 g a.i/ha): 5 (Herbicidal effect/phytotoxicity was 90% or greater)
- Phytotoxicity Corn (corn [19]; 12.5 g a.i/ha): 0 (Herbicidal effect/phytotoxicity was 0% to 10%)
- Phytotoxicity Corn (corn [19]; 25 g a.i/ha): 0 (Herbicidal effect/phytotoxicity was 0% to 10%)
- Phytotoxicity Corn (corn [20]): 3 (Herbicidal effect/phytotoxicity was 50% to 70%)
- Herbicidal effect Chenopodium album [21]: 5 (Herbicidal effect/phytotoxicity was 90% or greater)
- Herbicidal effect Amaranthus viridis [22]: 5 (Herbicidal effect/phytotoxicity was 90% or greater)
- Herbicidal effect Abutilon theophrast [23]: 5 (Herbicidal effect/phytotoxicity was 90% or greater)
